Assay results from US8748496B2, “Methods of treatment of hyperuricemia and associated disease states” (Elan Pharmaceuticals, Inc., priority 2008, dated 2014).
Entries after “also recorded” stand apart in the source; their conditions may differ.

Tested on: serum uric acid levels
Experiment: Phase 1 open-label multiple dosing study, serum uric acid in healthy adult subjects
Assay type: in vivo, human
Details: 2000 mg BID oral 10 days; for uric acid, Mean: N=8
Description: A Phase 1 single site, open-label multiple dosing study evaluating a scyllo-inositol formulation was conducted in healthy adult subjects. Approximately 8 healthy male subjects received 2000 mg of scyllo-inositol twice daily (4-500 mg tablets orally administered twice a day) for 10 days. Blood samples were collected 12 hours prior to the first dose (day 0) and on days 6, 14, and 21. Scyllo-inositol 500 mg capsules were BSE/TSE-free soft gelatin, white, opaque capsules and no excipients were used in the finished product. Capsules were supplied in 60-mL, oblong, white pharmaceutical high density polyethylene (HDPE) bottles with white caps. Each 60-mL bottle contained 30 capsules of 500 mg strength scyllo-inositol.

[1] = Baseline (Day 0, before first dose)

Compound: O[C@H]1[C@H](O)[C@@H](O)[C@H](O)[C@@H](O)[C@@H]1O [scyllo-inositol, 1,2,3,4,5,6-cyclohexanehexyl, (1alpha,2beta,3alpha,4beta,5alpha,6beta)]
- uric acid, Max [1]: 375 micromole per liter
- uric acid, Median [1]: 300.4 micromole per liter
- uric acid, Min [1]: 256 micromole per liter
- uric acid, Mean [1]: 305.6 micromole per liter
- uric acid, Max (Day 6): 250 micromole per liter
- uric acid, Max Change from Baseline (Day 6): −12 micromole per liter
- uric acid, Mean Change from Baseline (Day 6): −88.8 micromole per liter
- uric acid, Median (Day 6): 226.0 micromole per liter
- uric acid, Median Change from Baseline (Day 6): −72.6 micromole per liter
- uric acid, Min (Day 6): 155 micromole per liter
- uric acid, Min Change from Baseline (Day 6): −172 micromole per liter
- uric acid, Mean (Day 6): 216.8 micromole per liter
- uric acid, Max (Day 14): 274 micromole per liter
- uric acid, Max Change from Baseline (Day 14): −12 micromole per liter
- uric acid, Mean Change from Baseline (Day 14): −70.6 micromole per liter
- uric acid, Median (Day 14): 237.9 micromole per liter
- uric acid, Median Change from Baseline (Day 14): −74.4 micromole per liter
- uric acid, Min (Day 14): 196 micromole per liter
- uric acid, Min Change from Baseline (Day 14): −131 micromole per liter
- uric acid, Mean (Day 14): 243.9 micromole per liter
- uric acid, Max (Day 21): 333 micromole per liter
- uric acid, Max Change from Baseline (Day 21): 65 micromole per liter
- uric acid, Mean Change from Baseline (Day 21): −16.4 micromole per liter
- uric acid, Median (Day 21): 291.5 micromole per liter
- uric acid, Median Change from Baseline (Day 21): −23.8 micromole per liter
- uric acid, Min (Day 21): 250 micromole per liter
- uric acid, Min Change from Baseline (Day 21): −83 micromole per liter
- uric acid after the end of treatment (Day 21, last follow-up visit): returned to Day 0 values by Day 21
- uric acid, Mean (Day 21): 289.2 micromole per liter
- serum uric acid levels following the start of treatment (all 8 subjects): decreased in all subjects; also recorded: a decrease in serum uric acid levels was observed in all subjects
- mean uric acid levels versus normal range (during the study): remained within the normal range
